For data set [1], the system named is VMAT2. Nature of the data set: In vitro homogenate saturation binding (human endocrine and exocrine pancreatic tissue homogenates). The conditions noted are these: human islet vs exocrine homogenates. Here is the method: Endocrine (n = 4, 80% to 85% islets) or exocrine (n = 4) tissue preparations were isolated from human pancreata and homogenized in 50 mM tris(hydroxymethyl)aminomethane [TRIS] by a Polytron PT3000 homogenator (Kinematica AG, Littau, Switzerland). The tissue homogenates (0.5 to 6 mg/mL) were incubated in 1 mL of 50 mM TRIS with different concentrations of tracer around an expected dissociation constant Kd of 3 nM. The non-displaceable binding was determined by addition of 10 to 20 μM tetrabenazine (BIOTREND Chemikalien GmbH, Cologne, Germany).
All samples were incubated at RT for 60 min to reach an equilibrium and then moved onto a 1.2 μm Whatman filter (Brandel, Gaithersburg, MD, USA; pretreated with 0.05% polyethylenimine for > 1 h) by a C-48 cell harvester (Brandel, Gaithersburg, MD, USA). The filter components associated to each group were pooled and measured in a well counter (Uppsala Imanet AB, GE Healthcare, Uppsala, Sweden). Tissue samples and references were prepared in triplicates, and filter binding controls, in duplicates.
Tissue protein content (in milligram protein per sample) was assessed by a Bio-Rad Protein Assay (Bio-Rad, Hercules, CA, USA), and absorbance was measured with an EL808 microplate reader (BioTek, Winooski, VT, USA). The BP, defined as the ratio between the receptor density [Bmax] and dissociation constant [Kd], was determined by nonlinear regression.

Data set [2] in a line: PET/CT biodistribution in piglets. The data set is classed as in vivo. On the procedure: Male Swedish landrace piglets (n = 4, 15 to 17 kg, 11 to 14 weeks old) were anesthetized by Zoletil forte (Virbac, Carros Cedex, France). The animals were intubated and placed on a ventilator, and the anesthesia was maintained by 2.5% sevofluran. Normoglycemia was confirmed by determining blood glucose content (plasma glucose concentration 4.4 to 7.6 mM). The animal experiments were approved by the local ethics committee for animal research and performed in accordance with local institutional and Swedish national rules and regulations.
The PET/CT studies were performed using a Discovery ST scanner (General Electric, Milwaukee, WI, USA). All scans were acquired in 2D mode and reconstructed by OSEM iterative algorithm. Four piglets were administered 3.4 to 16.3 MBq/kg [^18F]FE-DTBZ-d4 as an intravenous [i.v.] bolus, and the biodistribution as well as the kinetics of the tracer in the abdomen was studied with a dynamic sequence over 90 min (the head first, prone, 4 frames × 30 s, 3 × 1 min, 5 × 3 min and 14 × 5 min). Arterial blood samples were acquired during the first 90 min, and both the plasma- and whole blood volume-corrected tracer contents were measured using the well counter. A whole-body PET/CT examination was performed 100 to 120 min post-administration.
The data in this study was compared to previously published PK/PD porcine data on non-deuterated [^18F]-FE-DTBZ. For details on the methodologies used in this study, see Eriksson et al..
PET and CT images were analyzed by PMOD (PMOD Technologies Ltd., Zürich, Switzerland). Values are given as means ± standard error of the mean [SEM] unless otherwise stated, and statistics are based on Student's t test.

Data set [3] in a line: Estimation of tracer defluorination by kinetic modeling of cortical bone uptake. The class given is in vivo, piglets. Particulars: for half-life: male, Swedish landrace, pig, intravenous; for half-life / kdefluorination, average / kdefluorination: plasma; for half-life / t1/2 (defluorination) / kdefluorination, average / kdefluorination: piglets. An excerpt:
Since the studies on [^18F]FE-DTBZ had been performed previously without metabolite correction analysis, we decided to quantify the defluorination retroactively by kinetic modeling of the cortical bone uptake. When modeling the PK/PD of a PET tracer, we generally study the relationship between three different functions (Equation 1) which we can express in a vector form; the input function [Cinput], the transfer function [HTR], and the output function [Ctissue] were defined as follows: […]
The gradual accumulation of radioactivity in the cortical bone tissue starting around 5 min after administration was assumed to consist entirely of [^18F]F^- uptake. It is difficult to delineate the cortical bone structures in the spinal column due to its relative small thickness even if isocontour thresholding is used. Partial volume effects [PVEs] will still yield kinetics containing contributions from both the cortical bone and bone marrow. […] To reduce the contribution from non-cortical sources, VOIs over the bone marrow were drawn, and the associated kinetics was subtracted from the cortical isocontour VOIs. The resulting kinetics after this operation was assessed to describe [^18F]F^- PK/PD in the cortical bone tissue and used as the output curve Ctissue for the quantification of tracer defluorination.
The Cinput of [^18F]F^- is in this specific case not created by an instantaneous bolus, but rather from a gradual reaction where [^18F]FE-DTBZ or [^18F]FE-DTBZ-d4 is the substrate and [^18F]F^- is the product. The rate of defluorination can then be expressed in a single parameter kdefluorination if we assume that the reaction is concentration-dependent and unchanging over time (or during the time frame investigated here). Cin is then uniquely determined from the arterial blood plasma curve [Cp] and kdefluorination (Equation 3): […]
The defluorination rate constant in plasma can then be determined by minimizing Equation 4: […]
All optimization was performed using MatLab 7.8.0 (MathWorks, Inc., Natick, MA, USA).

Data set [4] in a line: Quantification of pancreatic uptake by one-tissue compartment model. Particulars: pancreas; for Kp: male, Swedish landrace, pig, intravenous; for K1, average / k2, average / K1 / k2: defluorination-corrected plasma input. The class given is in vivo, piglets. An excerpt:
A one-tissue compartment model was used to estimate the compound parameter VT as well as the tissue specific rate constants K1 to k2 in the pancreas. The Cp was used as an input function, corrected for tracer metabolism by defluorination parameter kdefluorination determined from cortical bone uptake. The kinetic parameters were estimated by the PMOD modeling module PKIN.

The nature of data set [5]: Radiochemical stability of formulated product (analytical HPLC). The conditions noted are these: for up to 5 h. The data set is classed as physicochemical. On the procedure: The radiochemical purity, identity, and stability of [^18F]FE-DTBZ-d4 were determined by analytical HPLC using a reverse-phase μBondapak column (C18, 3.9 Ø × 300 mm, 10 μm, Waters Corporation) with mobile phase CH3CN/10 mM H3PO4 (15:85) and a flow rate of 3 mL/min. The effluent was monitored with an UV absorbance detector (λ = 214 nm) coupled with a radioactive detector (β-flow, Beckman Coulter, Inc., Fullerton, CA, USA). The identity of [^18F]FE-DTBZ-d4 was confirmed by co-injection with the authentic nonradioactive FE-DTBZ-d4.

Data set [6] deals with T1, VMAT2 (Homo sapiens, UniProt Q05940).
T1 construct: tissue preparations were isolated from human pancreata and homogenized; from tissue; host or cells: human pancreas: endocrine (80% to 85% islets) and exocrine tissue homogenates
The arrangement: method as in PMID 20346875. Particulars: human islet homogenate, described previously; cited from earlier work.

The subject of data set [7] is VMAT2. The arrangement: method as in PMID 20346875. Particulars: cited from earlier work.
Details of data set [8]: method as in PMID 20346875. The conditions noted are these: piglet model, PET/CT 90 min after tracer administration; cited from earlier work.
The procedure of data set [9]: Arterial blood and plasma samples were measured using the well-counter. The animals were positioned with a field of view as in the [^18F]FE-DTBZ-d4 dynamic scan.
Tissue volumes of interest [VOIs] and regions of interest [ROIs] were delineated on CT images or partially summed PET images. The kinetic uptake in the cortical bone tissue for all three tracers was assessed by generating isocontour VOIs over the lumbar vertrebral bodies in CT images.
The HTR is given in Equation 2, where φ1, φ2, θ1, and θ2 are macro-parameters determined by the rate constants K1, k2, k3, and k4 [18]. VT and VS denote the total and specific binding distribution volumes, respectively:
The [^18F]F^- HTR in the cortical bone was determined by the kinetic modeling module PKIN for PMOD.

Setting [10] is: average, read-out: t1/2 (defluorination), average.
[11] abbreviates: read-out: Half-life stability against defluorination.
Where [12] appears, read: individual experiments, [^18F]FE-DTBZ from retrospective analysis of earlier data.
Setting [13] is: mean ± SEM as given in text/footnote.
Where [14] appears, read: cortical spinal bone, average of 3 pigs.
Where [15] appears, read: cortical spinal bone, individual pigs.
[16] abbreviates: cortical spinal bone, mean ± SEM as given in text.

SMILES strings stand for the structures. Where “and” joins values, the source holds several entries; their conditions need not be identical. Identical values can stand only once. Like-named read-outs stand apart in the source and are kept apart here. Bounds are passed on as bounds.

T1 sequence (Q05940 whole entry): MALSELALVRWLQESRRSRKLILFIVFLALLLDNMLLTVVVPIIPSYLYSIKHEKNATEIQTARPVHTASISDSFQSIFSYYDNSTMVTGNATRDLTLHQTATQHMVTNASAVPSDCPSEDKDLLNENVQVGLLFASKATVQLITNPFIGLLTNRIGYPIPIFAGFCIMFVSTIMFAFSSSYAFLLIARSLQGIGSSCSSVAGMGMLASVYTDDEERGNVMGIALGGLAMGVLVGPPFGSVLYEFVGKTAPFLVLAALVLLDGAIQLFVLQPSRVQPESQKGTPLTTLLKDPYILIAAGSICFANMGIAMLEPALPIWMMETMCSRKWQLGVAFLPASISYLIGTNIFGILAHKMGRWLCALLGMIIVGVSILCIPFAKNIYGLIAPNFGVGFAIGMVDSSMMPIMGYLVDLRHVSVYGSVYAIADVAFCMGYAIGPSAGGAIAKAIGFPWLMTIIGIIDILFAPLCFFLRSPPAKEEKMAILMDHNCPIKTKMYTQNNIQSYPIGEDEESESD

Turning to `COc1cc2c(cc1OCCF)CCN1C[C@@H](CC(C)C)[C@H](O)C[C@H]21` [[^18F]FE-DTBZ-d4, (2R,3R,11bR)-9-(2-fluoroethoxy)-3-isobutyl-10-methoxy-2,3,4,6,7,11b-hexahydro-1H-pyrido[2,1-a]isoquinolin-2-ol], the BPislet/BPexocrine ratio in the data set on VMAT2 [1] was 16. In data set [2] (i.v. bolus), the “Bile tracer and metabolites” value is reported as above 10 SUV. Besides, the “Pancreas uptake after 90 min” value in data set [2] (i.v. bolus, 90 min) is listed as 1.8 SUV. Besides, in [2] (i.v. bolus, shortly after administration), the “Pancreas average peak uptake” value was 2.64 SUV. Besides, in [2] (within the initial minutes, no further accumulation), the “Spinal column vertebrae VOIs uptake” value came to 1.4 SUV. Also, the half-life in data set [3] (setting [10]) was 7.23 h. Further, the half-life in [3] (setting [11]) is above 6 h. Also, the “t1/2 (defluorination)” value in data set [3] (individual experiments) was 7.312 h and 27.507 h and 3.292 h and 13.13 h. The “kdefluorination, average” value in [3] (average) is 2.67e-05 s⁻¹. In addition, the kdefluorination in data set [3] (setting [12]) was 2.67e-05 s⁻¹ and 7e-06 s⁻¹ and 5.83e-05 s⁻¹ and 1.47e-05 s⁻¹. The kdefluorination in [3] (setting [13]) was 2.67e-05 ± 1.2e-05 s⁻¹. Besides, the “Increase in half-life stability” value in [3] (vs non-deuterated analogue) is listed as “six fold increase”. For the same molecule, in data set [4] (average, read-out: VT, average), the Kp turned out to be 3.69. Further, in data set [4] (average), the “K1, average” value is 0.81 (cc/min)/cc and the “k2, average” value came to 0.26 min⁻¹. In data set [4] (individual experiments), the K1 was 0.65 (cc/min)/cc and 1.09 (cc/min)/cc and 1.13 (cc/min)/cc and 0.36 (cc/min)/cc; the k2 is 0.32 min⁻¹ and 0.25 min⁻¹ and 0.37 min⁻¹ and 0.10 min⁻¹; the “VT (total distribution volume, K1/k2)” value is 2.05 cc/cc and 4.39 cc/cc and 3.06 cc/cc and 3.64 cc/cc. In addition, the “Radiochemical purity of the formulated product (stability)” value in data set [5] is listed as above 98%.
In the case of `COc1cc2c(cc1OCC[18F])CCN1CC(CC(C)C)C(O)CC21` (centres unmarked) [[^18F]FE-DTBZ], the half-life was 1.06 h in [3] (setting [10]); 0.77 h in [3] (individual experiments, read-out: t1/2 (defluorination)); above 1 h in [3] (setting [11]). The “t1/2 (defluorination)” value in [3] (individual experiments) is 1.46 h and 0.952 h. Also, in data set [3] (average), the “kdefluorination, average” value is 0.0002 s⁻¹. For the same molecule, the kdefluorination in data set [3] (setting [12]) was 0.00025 s⁻¹ and 0.000132 s⁻¹ and 0.0002023 s⁻¹; in data set [3] (setting [13]) it was 0.0002 ± 3.3e-05 s⁻¹. The Kp turned out to be 4.17 in [4] (average, read-out: VT, average) and 3.39 in data set [4] (individual experiments, read-out: VT (total distribution volume, K1/k2)). Further, the “K1, average” value in [4] (average) is 0.26 (cc/min)/cc. Further, the “k2, average” value in data set [4] (average) was 0.064 min⁻¹. In addition, in [4] (individual experiments), the K1 was 0.27 (cc/min)/cc and 0.30 (cc/min)/cc and 0.20 (cc/min)/cc. For the same molecule, the k2 in data set [4] (individual experiments) is 0.08 min⁻¹ and 0.07 min⁻¹ and 0.04 min⁻¹. The “VT (total distribution volume, K1/k2)” value in data set [4] (individual experiments) is 4.47 cc/cc and 4.65 cc/cc. The BPislet on VMAT2 [6] is on record as 110.4 femtomoles per milligram protein per nanoMolar. Moreover, the BPislet/BPexocrine ratio with VMAT2 [7] (from previously described BP values) was 11.2. For the same molecule, the BPexocrine in the data set on VMAT2 [7] (human exocrine homogenate, described previously) was 9.8 femtomoles per milligram protein per nanoMolar. In data set [8], the “Spinal column uptake at the end of the experiments” value is listed as 3.1 SUV.
Take `[18FH]` [[^18F]F^-, Fluorine-18 fluoride]: the “Plasma delay, average” value in [9] (cortical spinal bone model, average of 3 pigs) came to 25.67 s. For the same molecule, the Plasma delay in [9] (cortical spinal bone model, individual pigs) was 25.6 s and 23.5 s and 27.9 s. Also, in [9] (setting [14]), the “K1, average” value is reported as 0.57 (cc/min)/cc; the “VS, average” value came to 27.53 cc/cc; the “VS/VT, average” value was 0.99; the “VT, average” value stood at 27.9 cc/cc. In [9] (setting [14]), the “k2, average” value was 1.54 min⁻¹; the “k3, average” value came to 0.42 min⁻¹; the “k4, average” value was 0.0058 min⁻¹. Moreover, in data set [9] (setting [15]), the K1 was 0.71 (cc/min)/cc and 0.44 (cc/min)/cc and 0.56 (cc/min)/cc; the “VS (specific binding distribution volume)” value was 35.9 cc/cc and 19.8 cc/cc and 26.9 cc/cc; the VS/VT was determined as 0.99; the “VT (total distribution volume)” value was 36.4 cc/cc and 20.1 cc/cc and 27.2 cc/cc. Also, in data set [9] (setting [15]), the k2 was 1.27 min⁻¹ and 1.78 min⁻¹ and 1.57 min⁻¹; the k3 was 0.39 min⁻¹ and 0.5 min⁻¹ and 0.38 min⁻¹; the k4 is 0.0061 min⁻¹ and 0.0062 min⁻¹ and 0.0051 min⁻¹. Moreover, in [9] (setting [16]), the k3 came to 0.42 ± 0.04 min⁻¹ and the k4 came to 0.0058 ± 0.0004 min⁻¹. The “Signal coming from the nonspecific or free tracer” value in data set [9] (cortical spinal bone, model prediction) is on record as “less than 1%”.

Source of the values: PMC3284452, “Decreased defluorination using the novel beta-cell imaging agent [^18F]FE-DTBZ-d4 in pigs examined by PET” (EJNMMI Research, 2011).
